PubChem BioAssay AID256 (DTP/NCI, 2004)
Where “and” joins values, the source holds several entries; their conditions need not be identical. Equal entries are not always repeated. Inconclusive results and toxic doses are left out.

Test system: CD2F1 mice, L1210 leukemia ip, survival T/C
Experiment: NCI In Vivo Anticancer Drug Screen. Data for tumor model L1210 Leukemia (intraperitoneal) in CD2F1 (CDF1) mice
Conditions: higher = longer survival
How it was run: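 Tumor-bearing mice (transplanted tumor) were split into treated and vehicle control groups, and the measured endpoint of each treated group was divided by that of its vehicle controls.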

[1] = endpoint: mean survival time, dose: 100.0 mg/kg/injection, schedule: Q01DX009 (ip), vehicle: saline
[2] = endpoint: mean survival time, dose: 200.0 mg/kg/injection, schedule: Q01DX009 (ip), vehicle: saline
[3] = endpoint: mean survival time, dose: 400.0 mg/kg/injection, schedule: Q01DX009 (ip), vehicle: saline
[4] = endpoint: mean survival time, dose: 100.0 mg/kg/injection, schedule: Q04DX002 (ip), vehicle: saline with Tween-80
[5] = endpoint: mean survival time, dose: 200.0 mg/kg/injection, schedule: Q04DX002 (ip), vehicle: saline with Tween-80
[6] = endpoint: mean survival time, dose: 400.0 mg/kg/injection, schedule: Q04DX002 (ip), vehicle: saline with Tween-80
[7] = endpoint: mean survival time, dose: 100.0 mg/kg/injection, schedule: Q04DX003 (ip), vehicle: saline with Tween-80
[8] = endpoint: mean survival time, dose: 200.0 mg/kg/injection, schedule: Q04DX003 (ip), vehicle: saline with Tween-80
[9] = endpoint: mean survival time, dose: 400.0 mg/kg/injection, schedule: Q04DX003 (ip), vehicle: saline with Tween-80
[10] = endpoint: mean survival time, dose: 100.0 mg/kg/injection, schedule: Q04DX003 (ip), vehicle: saline
[11] = endpoint: mean survival time, dose: 200.0 mg/kg/injection, schedule: Q04DX003 (ip), vehicle: saline
[12] = endpoint: mean survival time, dose: 100.0 mg/kg/injection, schedule: Q01DX009 (ip), vehicle: saline with Tween-80
[13] = endpoint: mean survival time, dose: 200.0 mg/kg/injection, schedule: Q01DX009 (ip), vehicle: saline with Tween-80
[14] = endpoint: mean survival time, dose: 400.0 mg/kg/injection, schedule: Q01DX009 (ip), vehicle: saline with Tween-80
[15] = endpoint: mean survival time, dose: 100.0 mg/kg/injection, schedule: Q04DX003 (ip), vehicle: Klucel (hydroxypropylcellulose) (HPC)
[16] = endpoint: mean survival time, dose: 400.0 mg/kg/injection, schedule: Q04DX003 (ip), vehicle: saline
[17] = endpoint: mean survival time, dose: 100.0 mg/kg/injection, schedule: Q01DX001 (ip), vehicle: saline
[18] = endpoint: mean survival time, dose: 200.0 mg/kg/injection, schedule: Q01DX001 (ip), vehicle: saline
[19] = endpoint: mean survival time, dose: 400.0 mg/kg/injection, schedule: Q01DX001 (ip), vehicle: saline

CC1CC(C)/C(=N/NC(N)=S)C(C(O)CC2CC(=O)NC(=O)C2)C1 (stereo not given)
T/C (endpoint: mean survival time, dose: 25.0 mg/kg/injection, schedule: Q01DX009 (ip), vehicle: saline): 94 % of control and 100 % of control
T/C (endpoint: mean survival time, dose: 50.0 mg/kg/injection, schedule: Q01DX009 (ip), vehicle: saline): 100 % of control and 102 % of control
T/C [1]: 97 % of control and 103 % of control
T/C [2]: 113 % of control and 102 % of control
T/C [3]: 113 % of control and 114 % of control

Nc1cn2ncnc2c(=O)[nH]1
T/C (endpoint: median survival time, dose: 50.0 mg/kg/injection, schedule: Q01DX005 (ip), vehicle: saline): 106 % of control
T/C (endpoint: median survival time, dose: 100.0 mg/kg/injection, schedule: Q01DX005 (ip), vehicle: saline): 106 % of control
T/C (endpoint: median survival time, dose: 200.0 mg/kg/injection, schedule: Q01DX005 (ip), vehicle: saline): 113 % of control

CO[C@@]12[C@@H]3N[C@@H]3CN1C1=C(C(=O)C(NCc3ccco3)=C(C)C1=O)[C@@H]2COC(N)=O
T/C (endpoint: mean survival time, dose: 1.5 mg/kg/injection, schedule: Q01DX001 (ip), vehicle: distilled water + Tween-80): 113 % of control
T/C (endpoint: mean survival time, dose: 3.0 mg/kg/injection, schedule: Q01DX001 (ip), vehicle: distilled water + Tween-80): 120 % of control
T/C (endpoint: mean survival time, dose: 24.0 mg/kg/injection, schedule: Q01DX001 (ip), vehicle: distilled water + Tween-80): 156 % of control
T/C (endpoint: mean survival time, dose: 36.0 mg/kg/injection, schedule: Q01DX001 (ip), vehicle: distilled water + Tween-80): 108 % of control

O=C(NCCCl)C(=O)NCCCl
T/C [4]: 100 % of control
T/C [5]: 100 % of control
T/C [6]: 100 % of control

CCSC/C(=N\Nc1ccc([N+](=O)[O-])cc1[N+](=O)[O-])c1ccccc1
T/C [7]: 109 % of control
T/C [8]: 109 % of control
T/C [9]: 102 % of control

O=C(O)CCC(=O)c1ccc(Cl)cc1
T/C (endpoint: mean survival time, dose: 3.13 mg/kg/injection, schedule: Q04DX002 (ip), vehicle: saline with Tween-80): 112 % of control
T/C (endpoint: mean survival time, dose: 6.25 mg/kg/injection, schedule: Q04DX002 (ip), vehicle: saline with Tween-80): 97 % of control
T/C (endpoint: mean survival time, dose: 12.5 mg/kg/injection, schedule: Q04DX002 (ip), vehicle: saline with Tween-80): 93 % of control
T/C (endpoint: mean survival time, dose: 25.0 mg/kg/injection, schedule: Q04DX002 (ip), vehicle: saline with Tween-80): 97 % of control
T/C (endpoint: median survival time, dose: 200.0 mg/kg/injection, schedule: Q04DX002 (ip), vehicle: saline with Tween-80): 94 % of control

O=c1c(F)cn(-c2ccco2)c(=O)n1-c1ccco1
T/C [8]: 98 % of control
T/C [9]: 102 % of control

CC(=O)C(CN(C)C)c1ccccc1 (stereo not given)
T/C [10]: 95 % of control
T/C [11]: 107 % of control

CCCC(=O)/C=C\c1ccccc1
T/C (endpoint: mean survival time, dose: 50.0 mg/kg/injection, schedule: Q04DX002 (ip), vehicle: saline with Tween-80): 102 % of control
T/C [4]: 102 % of control
T/C [5]: 91 % of control
T/C [6]: 94 % of control

Cc1cccc(C(=O)C=C(C(F)(F)F)C(F)(F)F)c1
T/C (endpoint: mean survival time, dose: 12.5 mg/kg/injection, schedule: Q01DX009 (ip), vehicle: saline with Tween-80): 103 % of control
T/C (endpoint: mean survival time, dose: 25.0 mg/kg/injection, schedule: Q01DX009 (ip), vehicle: saline with Tween-80): 113 % of control

Cc1c2ccccc2c(CSCCC(N)C(=O)O)c2ccccc12 (stereo not given)
T/C [7]: 96 % of control
T/C [8]: 93 % of control
T/C [9]: 90 % of control

Nc1nc(N)nc(NC(=O)COc2cc(Cl)c(Cl)cc2Cl)n1
T/C [12]: 100 % of control
T/C [7]: 92 % of control
T/C [13]: 105 % of control
T/C [14]: 103 % of control
T/C [9]: 88 % of control

NNC(=O)OCc1ccccc1
T/C [4]: 100 % of control

CC(C)(C)OC(=O)NOC(=O)C(C)(C)C
T/C (endpoint: mean survival time, dose: 25.0 mg/kg/injection, schedule: Q04DX003 (ip), vehicle: saline with Tween-80): 101 % of control
T/C (endpoint: mean survival time, dose: 50.0 mg/kg/injection, schedule: Q04DX003 (ip), vehicle: saline with Tween-80): 100 % of control
T/C [7]: 96 % of control
T/C [8]: 89 % of control
T/C [9]: 87 % of control

Cc1c2[nH]c(c1CCC(=O)O)/C=c1\[n-]/c(c(C)c1CCC(=O)O)=C\c1[n-]c(c(C)c1C(C)O)/C=c1\[nH]/c(c(C)c1C(C)O)=C\2.[Cl][Pt+2][Cl] (stereo not given)
T/C (endpoint: mean survival time, dose: 12.5 mg/kg/injection, schedule: Q04DX003 (ip), vehicle: Klucel (hydroxypropylcellulose) (HPC)): 88 % of control
T/C (endpoint: mean survival time, dose: 25.0 mg/kg/injection, schedule: Q04DX003 (ip), vehicle: Klucel (hydroxypropylcellulose) (HPC)): 90 % of control
T/C (endpoint: mean survival time, dose: 50.0 mg/kg/injection, schedule: Q04DX003 (ip), vehicle: Klucel (hydroxypropylcellulose) (HPC)): 93 % of control
T/C [15]: 88 % of control

Cc1[nH]c(=O)c(Br)cc1Br
T/C [7]: 98 % of control
T/C [8]: 101 % of control
T/C [9]: 101 % of control

[CH3][Sb]([CH3])([CH3])([O]C(=O)CC#N)[O]C(=O)CC#N
T/C [7]: 92 % of control
T/C [8]: 92 % of control
T/C [9]: 97 % of control

BrCN(CBr)c1ccc2c(c1)Cc1cc(Br)ccc1-2
T/C [10]: 100 % of control
T/C [11]: 101 % of control
T/C [16]: 103 % of control

O=C(O)CNC(=O)C(CSC(c1ccccc1)(c1ccccc1)c1ccccc1)NC(c1ccccc1)(c1ccccc1)c1ccccc1 (stereo not given)
T/C (endpoint: mean survival time, dose: 75.0 mg/kg/injection, schedule: Q01DX001 (ip), vehicle: saline): 97 % of control

Cn1c2c(c3ccccc31)CCCC2=O
T/C [17]: 106 % of control
T/C [18]: 97 % of control
T/C [19]: 93 % of control

c1ccc2c(c1)-c1ccccc1C1NC21 (stereo not given)
T/C (endpoint: median survival time, dose: 6.25 mg/kg/injection, schedule: Q01DX009 (ip), vehicle: saline with Tween-80): 112 % of control
T/C (endpoint: median survival time, dose: 12.5 mg/kg/injection, schedule: Q01DX009 (ip), vehicle: saline with Tween-80): 108 % of control
T/C (endpoint: median survival time, dose: 25.0 mg/kg/injection, schedule: Q01DX009 (ip), vehicle: saline with Tween-80): 120 % of control

CNC(=O)ON=C(c1ccccc1)c1ccccc1
T/C [17]: 98 % of control
T/C [18]: 104 % of control
T/C [19]: 102 % of control

O=c1cc(-c2ccccc2)ss1
T/C [15]: 104 % of control
T/C (endpoint: mean survival time, dose: 200.0 mg/kg/injection, schedule: Q04DX003 (ip), vehicle: Klucel (hydroxypropylcellulose) (HPC)): 100 % of control
T/C (endpoint: mean survival time, dose: 400.0 mg/kg/injection, schedule: Q04DX003 (ip), vehicle: Klucel (hydroxypropylcellulose) (HPC)): 105 % of control

O=C(Nc1ccccc1)OCCc1c2ccccc2nc2ccccc12
T/C [4]: 94 % of control
T/C [5]: 94 % of control
T/C [6]: 90 % of control and 97 % of control

CCCCCCCC(=O)Nc1c(C)cc(C)cc1C
T/C [12]: 91 % of control
T/C [13]: 98 % of control
T/C [14]: 92 % of control

Nc1ccc(CNc2ccccc2)cc1
T/C (endpoint: mean survival time, dose: 100.0 mg/kg/injection, schedule: Q04DX002 (ip), vehicle: other): 95 % of control and 103 % of control
T/C (endpoint: mean survival time, dose: 200.0 mg/kg/injection, schedule: Q04DX002 (ip), vehicle: other): 100 % of control and 106 % of control
T/C (endpoint: mean survival time, dose: 400.0 mg/kg/injection, schedule: Q04DX002 (ip), vehicle: other): 118 % of control and 91 % of control

CCCCN=Cc1ccccc1O.CCCCN=Cc1ccccc1O.[Cr]
T/C (endpoint: mean survival time, dose: 100.0 mg/kg/injection, schedule: Q01DX001 (ip), vehicle: saline with Tween-80): 93 % of control

CCCCCC/C=C/C(O)CC (stereo not given)
T/C [10]: 100 % of control
T/C [11]: 95 % of control
T/C [16]: 103 % of control

CCC1([N+](=O)[O-])COC(c2ccc(Cl)cc2)OC1 (stereo not given)
T/C (endpoint: mean survival time, dose: 100.0 mg/kg/injection, schedule: Q01DX001 (ip), vehicle: Klucel (hydroxypropylcellulose) (HPC)): 104 % of control
T/C (endpoint: mean survival time, dose: 200.0 mg/kg/injection, schedule: Q01DX001 (ip), vehicle: Klucel (hydroxypropylcellulose) (HPC)): 86 % of control
T/C (endpoint: mean survival time, dose: 400.0 mg/kg/injection, schedule: Q01DX001 (ip), vehicle: Klucel (hydroxypropylcellulose) (HPC)): 111 % of control

O=C1CC(=Nc2ccccc2)CC(=O)N1
T/C (endpoint: mean survival time, dose: 12.5 mg/kg/injection, schedule: Q01DX009 (ip), vehicle: other): 102 % of control
T/C (endpoint: mean survival time, dose: 25.0 mg/kg/injection, schedule: Q01DX009 (ip), vehicle: other): 105 % of control
T/C (endpoint: mean survival time, dose: 50.0 mg/kg/injection, schedule: Q01DX009 (ip), vehicle: other): 91 % of control
T/C (endpoint: mean survival time, dose: 100.0 mg/kg/injection, schedule: Q01DX009 (ip), vehicle: other): 89 % of control
T/C (endpoint: mean survival time, dose: 200.0 mg/kg/injection, schedule: Q01DX009 (ip), vehicle: other): 89 % of control

OC(C/C(=N\Nc1ccccc1)c1ccc(F)cc1)(C(F)(F)F)C(F)(F)F
T/C [7]: 100 % of control
T/C [8]: 98 % of control
T/C [9]: 96 % of control

CC(O)COCCOCCO (stereo not given)
T/C [1]: 100 % of control
T/C [2]: 103 % of control
T/C [3]: 100 % of control
